Positions of bridges follow the written chain, without caps; N, C: chain ends. Residues, ends and D or L forms follow the SMILES beside them.

In series [1] the test system is other Kv channels (hKv1.1-1.5, rKv2.1, hKv3.1-3.4, mKv4.1, hKv7.2 and hERG). As to conditions: 1 µM toxin; n = 3-4.
The target of series [2] is T1, rKv4.2 D281A (Rattus norvegicus, UniProt Q63881, D281A).
T1 construct: expressed in transfected cells; host or cells: HEK293T
The experiment in a line: Patch clamp of rKv4.2 mutant D281A. Format: cell-based. Particulars: mean ± SEM.

The target of series [3] is T2, rKv4.2 D281N (Rattus norvegicus, UniProt Q63881, D281N).
T2 construct: expressed in transfected cells; host or cells: HEK293T
T2 sequence (Q63881 whole entry D281N): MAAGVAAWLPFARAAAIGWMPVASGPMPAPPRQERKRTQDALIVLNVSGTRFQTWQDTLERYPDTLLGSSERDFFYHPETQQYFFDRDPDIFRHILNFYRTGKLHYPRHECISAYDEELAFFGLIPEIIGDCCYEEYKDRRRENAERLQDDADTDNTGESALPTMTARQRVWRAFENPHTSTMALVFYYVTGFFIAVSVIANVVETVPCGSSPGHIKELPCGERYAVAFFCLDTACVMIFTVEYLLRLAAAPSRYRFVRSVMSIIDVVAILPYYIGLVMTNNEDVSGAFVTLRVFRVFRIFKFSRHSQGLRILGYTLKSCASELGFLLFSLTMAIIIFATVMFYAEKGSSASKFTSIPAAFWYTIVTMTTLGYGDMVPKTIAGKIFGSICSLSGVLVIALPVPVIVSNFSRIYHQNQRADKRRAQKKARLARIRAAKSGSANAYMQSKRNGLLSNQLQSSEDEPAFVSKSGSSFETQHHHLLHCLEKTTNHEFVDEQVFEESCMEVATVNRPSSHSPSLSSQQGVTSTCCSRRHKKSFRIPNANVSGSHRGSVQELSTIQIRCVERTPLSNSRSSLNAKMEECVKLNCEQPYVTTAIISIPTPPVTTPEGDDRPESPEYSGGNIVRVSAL
As to the kind of experiment: Patch clamp of rKv4.2 mutant D281N. Particulars: mean ± SEM. Format: cell-based.

In series [4] the target is T3, rKv4.2 E283A (Rattus norvegicus, UniProt Q63881, E283A).
T3 construct: expressed in transfected cells; host or cells: HEK293T
T3 sequence (Q63881 whole entry E283A): as the sequence (Q63881 whole entry D281N) above, with N281D, E283A counted along it
The experiment in a line: Patch clamp of rKv4.2 mutant E283A. The format is cell-based. As to conditions: mean ± SEM.

The target in series [5] is T4, rKv4.2 E283K (Rattus norvegicus, UniProt Q63881, E283K).
T4 construct: expressed in transfected cells; host or cells: HEK293T
T4 sequence (Q63881 1-630 E283K): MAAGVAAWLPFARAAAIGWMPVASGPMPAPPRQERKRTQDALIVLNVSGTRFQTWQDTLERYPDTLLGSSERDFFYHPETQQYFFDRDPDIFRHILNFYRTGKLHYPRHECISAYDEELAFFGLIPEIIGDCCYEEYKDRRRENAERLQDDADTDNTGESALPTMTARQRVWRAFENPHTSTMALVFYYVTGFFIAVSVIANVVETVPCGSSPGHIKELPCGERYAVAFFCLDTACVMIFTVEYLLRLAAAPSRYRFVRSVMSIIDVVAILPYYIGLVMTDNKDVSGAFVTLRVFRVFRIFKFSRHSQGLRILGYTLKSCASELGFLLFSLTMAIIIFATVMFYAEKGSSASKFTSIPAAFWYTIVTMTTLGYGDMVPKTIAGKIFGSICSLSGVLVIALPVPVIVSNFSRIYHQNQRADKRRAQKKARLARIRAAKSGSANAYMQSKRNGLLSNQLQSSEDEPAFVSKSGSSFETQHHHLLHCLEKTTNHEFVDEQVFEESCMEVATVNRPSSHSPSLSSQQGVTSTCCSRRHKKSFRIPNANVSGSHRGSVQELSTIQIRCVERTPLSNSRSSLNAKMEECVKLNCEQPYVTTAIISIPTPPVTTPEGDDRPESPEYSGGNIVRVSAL
The experiment in a line: cell-based. As to conditions: mean ± SEM.

Series [6] has as its target T5, rKv4.2 D284A (Rattus norvegicus, UniProt Q63881, D284A).
T5 construct: expressed in transfected cells; host or cells: HEK293T
The experiment in a line: Patch clamp of rKv4.2 mutant D284A. The format is cell-based. Particulars: mean ± SEM.

In series [7] the target is hERG (Homo sapiens, UniProt Q12809). The experiment in a line: in vitro. As to conditions: pH 7.4, SEM.
Chain of hERG (Q12809 whole entry): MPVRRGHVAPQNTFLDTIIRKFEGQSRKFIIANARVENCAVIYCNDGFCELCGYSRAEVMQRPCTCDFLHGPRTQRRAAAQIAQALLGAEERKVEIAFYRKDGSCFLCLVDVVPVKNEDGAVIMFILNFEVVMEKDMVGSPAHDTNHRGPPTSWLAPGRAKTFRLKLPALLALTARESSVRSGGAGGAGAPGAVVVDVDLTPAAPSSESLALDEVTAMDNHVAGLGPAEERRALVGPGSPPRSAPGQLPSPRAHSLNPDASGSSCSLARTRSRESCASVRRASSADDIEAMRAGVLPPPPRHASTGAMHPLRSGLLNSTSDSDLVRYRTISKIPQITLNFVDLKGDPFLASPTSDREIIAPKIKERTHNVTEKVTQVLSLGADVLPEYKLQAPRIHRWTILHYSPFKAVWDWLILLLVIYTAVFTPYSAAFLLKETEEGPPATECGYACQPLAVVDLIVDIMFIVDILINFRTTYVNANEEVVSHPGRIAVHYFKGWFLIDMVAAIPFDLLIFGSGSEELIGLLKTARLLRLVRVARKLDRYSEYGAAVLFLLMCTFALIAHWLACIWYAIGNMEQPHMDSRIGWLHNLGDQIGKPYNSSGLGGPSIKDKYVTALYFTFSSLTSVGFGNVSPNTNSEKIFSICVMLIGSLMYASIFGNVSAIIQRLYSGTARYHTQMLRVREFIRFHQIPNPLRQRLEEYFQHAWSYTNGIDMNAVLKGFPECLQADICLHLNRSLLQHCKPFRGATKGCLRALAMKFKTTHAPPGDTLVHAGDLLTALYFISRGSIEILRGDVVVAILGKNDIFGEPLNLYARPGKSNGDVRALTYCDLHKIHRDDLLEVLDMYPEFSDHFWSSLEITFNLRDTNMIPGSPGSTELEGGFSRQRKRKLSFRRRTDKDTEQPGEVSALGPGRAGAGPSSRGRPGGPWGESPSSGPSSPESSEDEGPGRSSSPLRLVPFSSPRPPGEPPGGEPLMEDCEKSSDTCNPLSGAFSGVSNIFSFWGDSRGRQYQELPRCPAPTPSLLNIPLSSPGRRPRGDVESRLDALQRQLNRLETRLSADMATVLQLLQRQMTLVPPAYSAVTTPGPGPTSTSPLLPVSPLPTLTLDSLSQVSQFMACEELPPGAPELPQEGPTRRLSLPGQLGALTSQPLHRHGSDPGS
For series [8], the target named is T6, rKv2.1 (Rattus norvegicus, UniProt P15387).
T6 construct: expressed in transfected cells; host or cells: HEK293T
T6 sequence (P15387 whole entry): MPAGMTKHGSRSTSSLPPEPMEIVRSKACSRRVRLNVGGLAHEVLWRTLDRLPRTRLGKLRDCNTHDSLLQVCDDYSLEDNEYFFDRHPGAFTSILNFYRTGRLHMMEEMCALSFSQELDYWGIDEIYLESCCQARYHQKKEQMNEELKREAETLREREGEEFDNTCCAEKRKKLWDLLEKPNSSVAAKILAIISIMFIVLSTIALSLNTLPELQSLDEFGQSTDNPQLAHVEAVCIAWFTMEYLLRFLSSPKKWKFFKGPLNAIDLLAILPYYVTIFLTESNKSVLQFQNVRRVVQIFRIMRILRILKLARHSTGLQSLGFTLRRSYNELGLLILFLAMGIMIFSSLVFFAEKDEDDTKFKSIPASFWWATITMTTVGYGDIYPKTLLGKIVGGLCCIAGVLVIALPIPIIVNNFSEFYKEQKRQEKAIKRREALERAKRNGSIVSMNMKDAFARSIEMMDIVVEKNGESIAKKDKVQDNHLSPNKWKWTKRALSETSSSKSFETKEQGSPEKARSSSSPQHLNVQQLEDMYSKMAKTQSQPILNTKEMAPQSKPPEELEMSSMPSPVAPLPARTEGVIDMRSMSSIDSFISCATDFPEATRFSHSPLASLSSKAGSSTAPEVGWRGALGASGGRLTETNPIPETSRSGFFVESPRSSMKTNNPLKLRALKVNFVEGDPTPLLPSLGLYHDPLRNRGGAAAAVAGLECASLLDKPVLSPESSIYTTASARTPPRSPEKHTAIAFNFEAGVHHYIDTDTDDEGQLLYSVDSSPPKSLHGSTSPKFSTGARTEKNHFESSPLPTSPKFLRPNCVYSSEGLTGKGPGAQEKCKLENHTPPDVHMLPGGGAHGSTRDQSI
As to the kind of experiment: Whole-cell patch clamp of rKv2.1 currents. As to conditions: mean ± S.E.M., n = 6, SEM. The format is cell-based.

T5 sequence (Q63881 whole entry D284A): as the sequence (Q63881 whole entry D281N) above, with N281D, D284A counted along it
T1 sequence (Q63881 whole entry D281A): as the sequence (Q63881 whole entry D281N) above, with N281A counted along it

With `CC(C)C[C@H](NC(=O)[C@H](Cc1ccc(O)cc1)NC(=O)[C@@H](NC(=O)[C@H](CCCCN)NC(=O)[C@@H]1CSSC[C@@H]2NC(=O)[C@H](CCC(=O)O)NC(=O)[C@H](CC(N)=O)NC(=O)[C@H](CCCCN)NC(=O)CNC(=O)[C@@H]3CCCN3C(=O)[C@H]([C@@H](C)O)NC(=O)[C@@H]3CSSC[C@H](NC(=O)[C@H](C)NC(=O)[C@H](Cc4ccc(O)cc4)NC(=O)[C@H](CC(N)=O)NC(=O)[C@@H]4CCCN4C(=O)[C@H](CSSC[C@H](NC(=O)CN)C(=O)N[C@@H](CCCCN)C(=O)NCC(=O)N[C@@H](Cc4ccccc4)C(=O)NCC(=O)N[C@@H](CC(=O)O)C(=O)N[C@@H](CO)C(=O)N3)NC2=O)C(=O)N[C@@H](CO)C(=O)N[C@@H](CO)C(=O)N[C@@H](CCCCN)C(=O)N[C@@H](Cc2c[nH]cn2)C(=O)N[C@@H](CCCCN)C(=O)N[C@@H](Cc2c[nH]c3ccccc23)C(=O)N1)C(C)C)C(N)=O` [HNTX-III] (H-GCKGFGDSCTPGKNECCPNYACSSKHKWCKVYL-NH2; disulfide 2-17, 9-22, 16-29), the “effect on the current traces of other Kv channels” value in series [1] is listed as “no obvious or only minimal effect”. The IC50 stood at 214 ± 76 nM in series [2]; 131 ± 32 nM in series [3]; 987 ± 303 nM in series [4]; 3000 ± 1000 nM in series [5]; 491 ± 72 nM in series [6].

In the case of `CSCC[C@@H]1NC(=O)CNC(=O)[C@H](CCC(=O)O)NC(=O)[C@@H]2CSSC[C@H](NC(=O)[C@@H](N)Cc3ccc(O)cc3)C(=O)N[C@@H](CCC(N)=O)C(=O)N[C@@H](CCCCN)C(=O)N[C@@H](Cc3c[nH]c4ccccc34)C(=O)N[C@@H](CCSC)C(=O)N[C@@H](Cc3c[nH]c4ccccc34)C(=O)N[C@@H]([C@@H](C)O)C(=O)N[C@H]3CSSC[C@H](NC(=O)[C@H](C(C)C)NC1=O)C(=O)N[C@@H](CCCNC(=N)N)C(=O)N[C@@H](CC(C)C)C(=O)N[C@@H](Cc1c[nH]c4ccccc14)C(=O)N[C@H](C(=O)N[C@@H](CCCCN)C(=O)N[C@@H](CCCCN)C(=O)N[C@@H](CCCCN)C(=O)N[C@@H](CC(C)C)C(=O)N[C@@H](Cc1c[nH]c4ccccc14)C(=O)O)CSSC[C@H](NC(=O)[C@H](CCCCN)NC(=O)[C@H](CCCNC(=N)N)NC(=O)[C@H](CCC(=O)O)NC(=O)[C@H](CO)NC(=O)[C@H](CC(=O)O)NC3=O)C(=O)N2` [ProTx-II], the results for the IC50 in series [7], in series [5] and in series [8] were 29.7 ± 2.8 nM, 14 ± 6 nM and 78.7 ± 9 nM, respectively.

For the origin of these results see publication PMC11558128 (Advanced Science, 2024).
